One data set has as its system MCF7. Description: Cytotoxicity against human MCF7 cells assessed as cell growth inhibition after 72 hrs by MTT assay. Type of data set: functional, cell-based. Conditions: MCF7, 72 h. For orientation: Formazan colour is commonly taken as a measure of viable cells.
The test system of the next data set is BeWo. Nature of the data set: Cytotoxicity against human Bewo cells assessed as cell growth inhibition after 72 hrs by MTT assay. Type of data set: functional, cell-based.
Data set [1] in a line: Cytotoxicity against human HL60 cells assessed as cell growth inhibition after 72 hrs by MTT assay. Conditions: HL-60, 72 h. Type of data set: functional, cell-based.
The target in data set [2] is T1, Hepatocyte growth factor receptor (Homo sapiens, UniProt P08581). Description: Inhibition of cMET (unknown origin) using TK substrate-biotin as substrate preincubated with compound followed by substrate addition for 40 mins measured after 1 hr by HTRF assay. (In TR-FRET formats the signal depends on donor and acceptor labels being close together.)
T1 sequence (P08581 whole entry): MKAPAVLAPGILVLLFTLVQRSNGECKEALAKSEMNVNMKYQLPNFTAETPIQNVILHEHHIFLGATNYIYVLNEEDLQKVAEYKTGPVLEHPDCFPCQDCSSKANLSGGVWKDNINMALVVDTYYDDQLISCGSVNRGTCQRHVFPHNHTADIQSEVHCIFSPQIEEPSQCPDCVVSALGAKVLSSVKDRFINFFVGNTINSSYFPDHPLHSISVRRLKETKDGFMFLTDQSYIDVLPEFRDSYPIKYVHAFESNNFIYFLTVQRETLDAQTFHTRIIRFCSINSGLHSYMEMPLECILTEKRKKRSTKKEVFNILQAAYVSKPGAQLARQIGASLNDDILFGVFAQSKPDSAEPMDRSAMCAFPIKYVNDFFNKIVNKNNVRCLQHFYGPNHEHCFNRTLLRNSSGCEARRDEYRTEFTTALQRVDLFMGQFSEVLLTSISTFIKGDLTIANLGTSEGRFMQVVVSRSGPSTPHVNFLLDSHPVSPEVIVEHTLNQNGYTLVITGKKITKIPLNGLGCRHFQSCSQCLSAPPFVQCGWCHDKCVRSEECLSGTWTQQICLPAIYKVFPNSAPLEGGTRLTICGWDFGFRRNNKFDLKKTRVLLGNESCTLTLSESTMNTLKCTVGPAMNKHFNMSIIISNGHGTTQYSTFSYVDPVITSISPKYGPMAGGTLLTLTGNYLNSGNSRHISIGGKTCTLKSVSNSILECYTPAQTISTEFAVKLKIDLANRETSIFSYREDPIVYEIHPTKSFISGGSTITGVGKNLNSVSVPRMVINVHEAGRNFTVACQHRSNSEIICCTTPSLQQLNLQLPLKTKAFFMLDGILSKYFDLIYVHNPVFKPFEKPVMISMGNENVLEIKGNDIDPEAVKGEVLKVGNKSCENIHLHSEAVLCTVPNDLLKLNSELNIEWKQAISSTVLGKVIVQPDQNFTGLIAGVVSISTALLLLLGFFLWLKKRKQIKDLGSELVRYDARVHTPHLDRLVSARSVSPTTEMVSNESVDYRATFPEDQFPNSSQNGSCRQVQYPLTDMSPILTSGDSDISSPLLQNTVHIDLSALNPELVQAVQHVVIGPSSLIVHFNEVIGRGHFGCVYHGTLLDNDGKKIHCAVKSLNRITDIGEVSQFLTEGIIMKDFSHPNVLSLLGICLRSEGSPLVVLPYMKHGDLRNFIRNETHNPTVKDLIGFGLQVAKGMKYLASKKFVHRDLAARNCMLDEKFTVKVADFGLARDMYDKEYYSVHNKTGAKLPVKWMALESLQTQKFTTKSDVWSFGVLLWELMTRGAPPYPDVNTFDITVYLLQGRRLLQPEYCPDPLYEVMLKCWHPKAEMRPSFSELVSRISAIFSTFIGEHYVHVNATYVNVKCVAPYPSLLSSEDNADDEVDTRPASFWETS
Data set [3] can be described thus: Toxicity in ICR mouse assessed as mortality at 65.6 mg/kg, ig measured after 14 days. Type of data set: organism-based. Conditions: in vivo, po.
The nature of data set [4]: Toxicity in ig dosed ICR mouse assessed as mortality measured after 14 days. Type of data set: organism-based. Particulars: in vivo, po.
Data set [5] relates to Mus musculus. Nature of the data set: Toxicity in ICR mouse assessed as loss of locomotor activity at 72.9 mg/kg, ig measured after 14 days. In kind it is organism-based. Particulars: in vivo, po, 336 h.
In data set [6] the test system is Mus musculus. Description: Toxicity in ICR mouse assessed as respiratory depression at 72.9 mg/kg, ig measured after 14 days. Type of data set: organism-based. Conditions: in vivo, po, 336 h.
The subject of data set [7] is Mus musculus. Description: Toxicity in ICR mouse assessed as convulsions on limbs at 72.9 mg/kg, ig measured after 14 days. In kind it is organism-based, Limb. Particulars: in vivo, po, 336 h.
Data set [8] relates to Mus musculus. Nature of the data set: Toxicity in ICR mouse assessed as loss of locomotor activity at 81 mg/kg, ig measured after 14 days. In kind it is organism-based. Particulars: in vivo, po, 336 h.
Data set [9] has as its system Mus musculus. Description: Toxicity in ICR mouse assessed as respiratory depression at 81 mg/kg, ig measured after 14 days. In kind it is organism-based. Conditions: in vivo, po, 336 h.
The subject of data set [10] is Mus musculus. Nature of the data set: Toxicity in ICR mouse assessed as convulsions on limbs at 81 mg/kg, ig measured after 14 days. In kind it is organism-based, Limb. Conditions: in vivo, po, 336 h.
For data set [11], the system named is CCRF S-180. Nature of the data set: Antitumor activity against mouse S180 cells xenografted in ICR mouse assessed as tumor growth inhibition at 5 mg/kg, ig administered once daily for 7 days starting from second day post xenograft measured after 10 days. In kind it is functional. Particulars: CCRF S-180, po, read-out: TGI.
Data set [12] deals with Mus musculus. Nature of the data set: Toxicity in ICR mouse assessed as loss of locomotor activity at 90 mg/kg, ig measured after 14 days. In kind it is organism-based. Particulars: in vivo, po, 336 h.
In data set [13] the test system is Mus musculus. Description: Toxicity in ICR mouse assessed as respiratory depression at 90 mg/kg, ig measured after 14 days. Type of data set: organism-based. Conditions: in vivo, po, 336 h.
The test system of data set [14] is Mus musculus. Description: Toxicity in ICR mouse assessed as convulsions on limbs at 90 mg/kg, ig measured after 14 days. In kind it is organism-based, Limb. Particulars: in vivo, po, 336 h.
Data set [15] has as its system Mus musculus. Description: Toxicity in ICR mouse assessed as loss of locomotor activity at 100 mg/kg, ig measured after 14 days. Type of data set: organism-based. Particulars: in vivo, po, 336 h.
Data set [16] relates to Mus musculus. Description: Toxicity in ICR mouse assessed as respiratory depression at 100 mg/kg, ig measured after 14 days. In kind it is organism-based. Particulars: in vivo, po, 336 h.
Data set [17] deals with Mus musculus. Description: Toxicity in ICR mouse assessed as convulsions on limbs at 100 mg/kg, ig measured after 14 days. Type of data set: organism-based, Limb. Conditions: in vivo, po, 336 h.
Data set [18] relates to Mus musculus. Nature of the data set: Toxicity in ICR mouse assessed as pulmonary congestion at 72.9 mg/kg, ig measured after 14 days. In kind it is organism-based. Particulars: in vivo, po, 336 h.
In data set [19] the test system is Mus musculus. Nature of the data set: Toxicity in ICR mouse assessed as pulmonary congestion at 81 mg/kg, ig measured after 14 days. In kind it is organism-based. Particulars: in vivo, po, 336 h.
Data set [20] has as its system Mus musculus. Nature of the data set: Toxicity in ICR mouse assessed as pulmonary congestion at 90 mg/kg, ig measured after 14 days. Type of data set: organism-based. Particulars: in vivo, po, 336 h.
Data set [21] relates to Mus musculus. Description: Toxicity in ICR mouse assessed as pulmonary congestion at 100 mg/kg, ig measured after 14 days. In kind it is organism-based. Particulars: in vivo, po, 336 h.
Data set [22] has as its system CCRF S-180. Nature of the data set: Antitumor activity against mouse S180 cells xenografted in ICR mouse assessed as tumor growth inhibition at 10 mg/kg, ig administered once daily for 7 days starting from second day post xenograft measured after 10 days. Conditions: CCRF S-180, po, read-out: TGI. Type of data set: functional.
Data set [23] concerns CCRF S-180. Nature of the data set: Antitumor activity against mouse S180 cells xenografted in ICR mouse assessed as tumor growth inhibition at 20 mg/kg, ig administered once daily for 7 days starting from second day post xenograft measured after 10 days. Type of data set: functional. Particulars: CCRF S-180, po, read-out: TGI.
Data set [24] in a line: Toxicity in ICR mouse assessed as mortality at 72.9 mg/kg, ig measured after 14 days. Particulars: in vivo, po. In kind it is organism-based.
Data set [25] concerns Mus musculus. Description: Toxicity in ICR mouse assessed as clinical signs parameters at 65.6 mg/kg, ig measured after 14 days. In kind it is organism-based. Conditions: in vivo, po, 336 h.
In data set [26] the test system is Mus musculus. Description: Toxicity in ICR mouse assessed as body weight loss at 65.6 mg/kg, ig measured after 14 days. In kind it is organism-based. Conditions: in vivo, po, 336 h.
In data set [27] the target is T1, Hepatocyte growth factor receptor. Description: Inhibition of cMET (unknown origin) using poly(Glu-Tyr) substrate incubated for 60 mins by ELISA. For orientation: In an ELISA, binding on a coated surface is turned into a signal by an enzyme label.

One may read the IC50 as the concentration that inhibits the measured activity by half. As for `c1nnc2nnc(N3CCCC3)nn12`, the IC50 in the data set on MCF7 came out at 5.13 µM; in the data set with BeWo, 4.29 µM; in data set [1], 24.4 µM.
The corresponding values for `CCCNc1nnc2nncn2n1` are 19.8 µM, 14.3 µM and 15.1 µM.
On the same counts, the results for `O=C(c1ccc([N+](=O)[O-])cc1)N1CCN(c2nnc3nncn3n2)CC1` are 4.53 µM, 3.1 µM and 17.2 µM.
The corresponding values for `c1ccc(CN2CCN(c3nnc4nncn4n3)CC2)cc1` are 27.3 µM, 5.1 µM and 14.2 µM.
`OCCNc1nnc2nncn2n1`: the values for the IC50 (in the data set with MCF7; with BeWo; in data set [1]) were 11.6 µM, 3.31 µM and 45.3 µM, respectively.
On the same counts, the results for `c1nnc2nnc(N3CCCCC3)nn12` are 27.2 µM, 10.8 µM and 23.6 µM.
On to `O=C(C1CCCCC1)N1CCN(c2nnc3nncn3n2)CC1`, for which the IC50 in the data set with MCF7 amounted to 1.26 µM; in the data set with BeWo, 1.9 µM; in data set [1] it was 1.16 µM; in data set [2] it was 7.9 µM.
`c1nnc2nnc(NC3CCCC3)nn12`: the figures for the 50% inhibitory concentration (IC50) (in the data set with MCF7; with BeWo; in [1]) were 88.2 µM, 34.6 µM and 38.1 µM, respectively.
`CCCCCC(=O)N1CCN(c2nnc3nncn3n2)CC1`: the figures for the half-maximal inhibitory concentration (IC50) (in the data set with MCF7; in the data set on BeWo; in data set [1]) were 5.26 µM, 2.96 µM and 3.61 µM, respectively.
`Nc1nnc2nncn2n1`: the IC50 was 46.5 µM in the data set with MCF7, 17.3 µM in the data set with BeWo and 68.5 µM in data set [1].
On the same counts, the results for `CC(C)COC(=O)N1CCN(c2nnc3nncn3n2)CC1` are 5.39 µM, 13.1 µM and 7.93 µM.
The corresponding values for `CC(=O)N1CCN(c2nnc3nncn3n2)CC1` are 13.9 µM, 13.1 µM and 14.7 µM.
The corresponding values for `CCCCNc1nnc2nncn2n1` are 13.7 µM, 8.64 µM and 36.2 µM.
For the compound `O=C(c1ccccc1)N1CCN(c2nnc3nncn3n2)CC1`, the IC50 came out at 8.38 µM in the data set on MCF7, 5.87 µM in the data set on BeWo and 4.67 µM in data set [1].
The corresponding values for `CN(C)c1nnc2nncn2n1` are 7.76 µM, 0.61 µM and 4.84 µM.
As for `O=C(Cc1ccccc1)N1CCN(c2nnc3nncn3n2)CC1`, the IC50 with MCF7 came to 3.08 µM; in the data set on BeWo, 2.77 µM; in data set [1] it was 1.85 µM.
The corresponding values for `Cc1ccc(C(=O)N2CCN(c3nnc4nncn4n3)CC2)cc1` are 15.9 µM, 14.3 µM and 9.31 µM.
Take `CCCCC(=O)N1CCN(c2nnc3nncn3n2)CC1`: the IC50 is 2.76 µM in the data set with MCF7, 1.72 µM in the data set on BeWo and 3.13 µM in data set [1].
The corresponding values for `CCC(=O)N1CCN(c2nnc3nncn3n2)CC1` are 14.8 µM, 13.7 µM and 10.1 µM.
The corresponding values for `CC(Nc1nnc2nncn2n1)C(=O)O` (stereo not drawn) are greater than 100 µM, 82.2 µM and 74.2 µM.
For the compound `CC(C)C(=O)N1CCN(c2nnc3nncn3n2)CC1`, the IC50 in the data set on MCF7 was 1.81 µM; in the data set with BeWo, 1.09 µM; in data set [1] it was 1.61 µM; in [2] it was 23.7 µM.
On to `Cc1cc(C)n(-c2nnc3nncn3n2)n1`, for which the IC50 in the data set on MCF7 was greater than 100 µM; in the data set on BeWo, 47.3 µM; in data set [1] it was 63.3 µM.
On the same counts, the results for `O=C(c1ccc(Cl)cc1)N1CCN(c2nnc3nncn3n2)CC1` are 12.8 µM, 7.51 µM and 12.3 µM.
On the same counts, the results for `CC(C)(C)C(=O)N1CCN(c2nnc3nncn3n2)CC1` are 5.51 µM, 2.41 µM and 1.38 µM.
The term mortality denotes the percentage killed. The term LD50 denotes the dose expected to kill half of the subjects tested. For the compound `c1nnc2nnc(N3CCOCC3)nn12`, the IC50 in the data set with MCF7 is 2.24 µM; in the data set with BeWo, 1.3 µM; in data set [1], 1.45 µM; in data set [2], 11.8 µM. Further, the mortality at 336 h in data set [3] is 0%; in data set [24] it was 25%. In data set [4], the LD50 at 336 h amounted to 82.5 mg/kg. For the same compound, the Activity entry with Mus musculus [5], in the data set with Mus musculus [6], in the data set on Mus musculus [7], with Mus musculus [8], in the data set on Mus musculus [9] and with Mus musculus [10] was “Toxic” each time. Also, the Activity entry in the data set on Mus musculus [12], in the data set with Mus musculus [13], with Mus musculus [14], in the data set on Mus musculus [15], in the data set on Mus musculus [16] and with Mus musculus [17] was “Toxic” in each case. The Activity result in the data set with Mus musculus [18] is listed as “Toxic”; with Mus musculus [19], “Toxic”; in the data set with Mus musculus [20] it was “Toxic”; in the data set on Mus musculus [21], “Toxic”; in the data set with Mus musculus [25], “Non-toxic”; in the data set on Mus musculus [26] it was “Non-toxic”. In addition, the inhibition in vivo at 5 mg/kg in the data set on CCRF S-180 [11] came to 24.2%. Further, the inhibition in vivo at 10 mg/kg in the data set with CCRF S-180 [22] came out at 63%. In addition, in the data set with CCRF S-180 [23], the inhibition in vivo at 20 mg/kg was 27.9%.
As for `CN1CCN(c2nnc3nncn3n2)CC1`, the figures for the IC50 (in the data set with MCF7; in the data set with BeWo; in data set [1]) were 21.6 µM, 7.99 µM and 8.54 µM, respectively.
In [27], `COc1ccc2c(OCc3nnc4nnc(-c5ccccc5)nn34)ccnc2c1` registered an IC50 of 0.006 µM.
As to `c1nnc2nnc(NC3CCCCC3)nn12`, the IC50 was found to be 3.51 µM in the data set with MCF7, 2.65 µM in the data set with BeWo and 6.61 µM in [1].
On the same counts, the results for `CCCC(=O)N1CCN(c2nnc3nncn3n2)CC1` are 6.91 µM, 6.73 µM and 9.84 µM.
On to `c1ccc(CCNc2nnc3nncn3n2)cc1`, for which the IC50 worked out at 1.24 µM in the data set with MCF7, 2.49 µM in the data set with BeWo and 4.15 µM in data set [1].
On the same counts, the results for `OCC(CO)(CO)Nc1nnc2nncn2n1` are greater than 100 µM, 12.4 µM and greater than 100 µM.

The values are drawn from ChEMBL document CHEMBL3808385, “Synthesis, antitumor evaluation and molecular docking studies of [1,2,4]triazolo[4,3-b][1,2,4,5]tetrazine derivatives” (Bioorg Med Chem Lett, 2016).
